Counter-ions that a name gives are not always drawn.
Tests used:
[1] = biological target: T1, proMMP9(67-444;ΔFnII) (SEQ ID NO:5) (Homo sapiens, UniProt P14780, DEL216-390); assay: ThermoFluor with proMMP9(67-444;ΔFnII); conditions: read-out: proMMP9(67-444; ΔFnII) (SEQ ID NO: 5) binding
T1 construct: start methionine (N); made in house; host or cells: E. coli BL21(DE3) RIL
T1 sequence (P14780 with tags, fused parts or gaps DEL216-390): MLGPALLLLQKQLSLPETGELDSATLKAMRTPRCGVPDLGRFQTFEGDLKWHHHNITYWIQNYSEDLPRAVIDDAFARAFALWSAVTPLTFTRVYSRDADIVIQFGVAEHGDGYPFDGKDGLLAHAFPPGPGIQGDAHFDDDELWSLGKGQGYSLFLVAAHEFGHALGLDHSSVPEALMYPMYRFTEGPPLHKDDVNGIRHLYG
Method: (§1) The ThermoFluor® (TF) assay is a 384-well plate-based binding assay that measures thermal stability of proteins (Biomol Screen 2001, 6, 429-40; Biochemistry 2005, 44, 5258-66). The experiments were carried out using instruments available from Johnson & Johnson Pharmaceutical Research & Development, LLC. TF dye used in all experiments was […] (1,8-ANS) (Invitrogen: A-47).
(§2) Compounds were arranged in a pre-dispensed plate (Greiner Bio-one: 781280), wherein compounds were serially diluted in 100% DMSO across 11 columns within a series. Columns 12 and 24 were used as DMSO reference and contained no compound. For multiple compound concentration-response experiments, the compound aliquots (50 nL) were robotically predispensed directly into black 384-well polypropylene PCR microplates (Abgene: TF-0384/k) using a Cartesian Hummingbird liquid handler (DigiLab, Holliston, Mass.). Following compound dispense, protein and dye solutions were added to achieve the final assay volume of 3 μL. The assay solutions were overlayed with 1 μL of silicone oil (Fluka, type DC 200: 85411) to prevent evaporation.
(§3) Assay plates were robotically loaded onto a thermostatically controlled PCR-type thermal block and then heated from 40 to 90° C. at a ramp-rate of 1° C./min for all experiments. Fluorescence was measured by continuous illumination with UV light (Hamamatsu LC6) supplied via fiber optics and filtered through a band-pass filter (380-400 nm; >6 OD cutoff). Fluorescence emission of the entire 384-well plate was detected by measuring light intensity using a CCD camera (Sensys, Roper Scientific) filtered to detect 500±25 nm, resulting in simultaneous and independent readings of all 384 wells. A single image with 20-sec exposure time was collected at each temperature, and the sum of the pixel intensity in a given area of the assay plate was recorded vs temperature and fit to standard equations to yield the Tm (J Biomol Screen 2001, 6, 429-40).
(§4) Thermodynamic parameters necessary for fitting compound binding for each proMMP were estimated by differential scanning calorimetry (DSC) and from ThermoFluor® data. The heat capacity of unfolding for each protein was estimated from the molecular weight and from ThermoFluor® dosing data.
ThermoFluor® with proMMP9(67-444;ΔFnII) (SEQ ID NO:5)
The protein sample preparations had to include a desalting buffer exchange step via a PD-10 gravity column (GE Healthcare). The desalting buffer exchange was performed prior to diluting the protein to the final assay concentration of 3.5 μM proMMP9(67-444;ΔFnII) (SEQ ID NO:5). The concentration of proMMP9(67-444;ΔFnII) (SEQ ID NO:5) was determined spectrophotometrically based on a calculated extinction coefficient of ε280=33900 M^−1cm^−1, a calculated molecular weight of 22.6 kDa, and calculated pI of 5.20. ThermoFluor® reference conditions were defined as follows: 80 μg/mL (3.5 μM) proMMP9(67-444;ΔFnII) (SEQ ID NO:5), 50 μM 1,8-ANS, pH 7.0 Buffer (50 mM HEPES pH 7.0, 100 mM NaCl, 0.001% Tween-20, 2.5 mM MgCl2, 300 μM CaCl2). The thermodynamic parameters for proMMP9(67-444;ΔFnII) (SEQ ID NO:5) are as follows: Tm (° C.)=63 (+/−0.1), ΔUH(Tm) (cal mol^−1)=105000(+/−5000), ΔUS(Tm) (cal mol^−1 K^−1)=450, […].

[2] = biological target: T2, proMMP9(20-445;ΔFnII) (SEQ ID NO:6) (Homo sapiens, UniProt P14780, DEL216-390); assay: ThermoFluor with proMMP9(20-445;ΔFnII); conditions: read-out: proMMP9(20-445; ΔFnII) (SEQ ID NO: 6) binding
T2 construct: start methionine (N); made in house; host or cells: E. coli BL21(DE3) RIL
T2 sequence (P14780 with tags, fused parts or gaps DEL216-390): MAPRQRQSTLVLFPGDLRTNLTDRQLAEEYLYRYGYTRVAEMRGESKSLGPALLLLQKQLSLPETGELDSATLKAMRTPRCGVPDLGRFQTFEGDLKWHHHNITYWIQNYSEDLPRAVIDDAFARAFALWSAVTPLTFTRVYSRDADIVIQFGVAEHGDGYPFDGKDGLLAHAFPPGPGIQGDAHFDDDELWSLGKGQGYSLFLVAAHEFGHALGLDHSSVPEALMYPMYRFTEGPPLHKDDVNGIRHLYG
Method: as §1, §2, §3, §4
ThermoFluor® with proMMP9(20-445;ΔFnII) (SEQ ID NO:6)
The protein sample preparations included a desalting buffer exchange step via a PD-10 gravity column (GE Healthcare). The desalting buffer exchange was performed prior to diluting the protein to the final assay concentration of 2.8 μM proMMP9(20-445;ΔFnII) (SEQ ID NO:6). The concentration of proMMP9(20-445;ΔFnII) (SEQ ID NO:6) was determined spectrophotometrically based on a calculated extinction coefficient of ε280=39880 M^−1cm^−1, a calculated molecular weight of 28.2 kDa, and calculated pI of 5.5. ThermoFluor® reference conditions were define as follows: 80 μg/mL (2.8 μM) proMMP9(20-445;ΔFnII) (SEQ ID NO:6), 50 μM 1,8-ANS, pH 7.0 Buffer (50 mM HEPES pH 7.0, 100 mM NaCl, 0.001% Tween-20, 2.5 mM MgCl2, 300 μM CaCl2). The thermodynamic parameters for proMMP9(20-445;ΔFnII) (SEQ ID NO:6) are as follows: Tm (° C.)=72 (+/−0.1), ΔUH(Tm) (cal mol^−1)=160000(+/−5000), ΔUS(Tm) (cal mol^−1 K^−1)=434, ΔUCp (cal mol^−1 K^−1)=2400.

[3] = biological target: T3, full-length proMMP9(1-707) (SEQ ID NO:1) (Homo sapiens, UniProt P14780, R574P); assay: proMMP9/MMP3 P126 Activation Assay; format: biochemical; conditions: proMMP9(1-707) from HEK293 cells activated by catalytic MMP3
T3 construct: made in house; host or cells: HEK293 (proMMP9, secreted); E. coli (MMP3)
T3 sequence (P14780 20-707 R574P): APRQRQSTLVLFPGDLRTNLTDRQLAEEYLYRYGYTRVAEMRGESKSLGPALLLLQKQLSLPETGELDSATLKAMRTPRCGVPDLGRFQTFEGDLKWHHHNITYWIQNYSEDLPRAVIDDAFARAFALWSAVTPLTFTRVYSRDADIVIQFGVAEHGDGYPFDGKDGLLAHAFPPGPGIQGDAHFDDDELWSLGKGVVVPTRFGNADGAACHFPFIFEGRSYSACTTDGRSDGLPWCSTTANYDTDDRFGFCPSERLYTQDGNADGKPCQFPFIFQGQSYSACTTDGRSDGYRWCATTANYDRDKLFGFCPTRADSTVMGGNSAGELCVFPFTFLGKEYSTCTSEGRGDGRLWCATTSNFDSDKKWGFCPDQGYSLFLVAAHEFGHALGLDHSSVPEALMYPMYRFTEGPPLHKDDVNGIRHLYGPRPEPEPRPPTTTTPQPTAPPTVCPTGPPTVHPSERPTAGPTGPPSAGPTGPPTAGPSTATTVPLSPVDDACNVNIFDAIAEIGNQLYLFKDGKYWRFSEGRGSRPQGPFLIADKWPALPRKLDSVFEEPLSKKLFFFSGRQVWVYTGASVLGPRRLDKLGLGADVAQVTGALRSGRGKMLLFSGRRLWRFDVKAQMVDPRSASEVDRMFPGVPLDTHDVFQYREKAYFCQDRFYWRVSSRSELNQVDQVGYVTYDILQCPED
Method: proMMP9/MMP3 P126 Activation Assay
The reaction volume was 50 μL. […] Reactivity of residual MMP3 towards P-126 substrate was minimal under these conditions.

Kd [1]	Kd [2]	IC50 [3]	SMILES
390 nM	100 nM	430 nM	CC(C)Oc1ccc(C(N)=O)cc1Nc1nc(-c2ccc(OCCN3CCC(F)(F)CC3)cc2)cs1 [Example 32, 3-((4-(4-(2-(4,4-Difluoropiperidin-1-yl)ethoxy)phenyl)thiazol-2-yl)amino)-4-isopropoxybenzamide.TFA]
180 nM	98 nM	300 nM	CC(C)Oc1ccc(S(N)(=O)=O)cc1Nc1nc(-c2ccc(CN3CCOCC3)cc2)cs1 [Example 59, 4-isopropoxy-3-((4-(4-(morpholinomethyl)phenyl)thiazol-2-yl)amino)benzenesulfonamide.TFA]
180 nM	330 nM	620 nM	NS(=O)(=O)c1ccc(OC(F)(F)F)c(Nc2nc(-c3ccc(OCCN4CCC(F)CC4)cc3)cs2)c1 [Example 41, 3-((4-(4-(2-(4-fluoropiperidin-1-yl)ethoxy)phenyl)thiazol-2-yl)amino)-4-(trifluoromethoxy)benzenesulfonamide.TFA]
18 nM	17 nM	28 nM	CC(C)Oc1ccc(S(N)(=O)=O)cc1Nc1nc(-c2ccc(C3=CCN(C(C)C)CC3)cc2)cs1 [Example 15, 4-Isopropoxy-3-((4-(4-(1-isopropyl-1,2,3,6-tetrahydropyridin-4-yl)phenyl)thiazol-2-yl)amino)benzenesulfonamide.TFA]
30 nM	27 nM	69 nM	CC(C)Oc1ccc(S(N)(=O)=O)cc1Nc1nc(-c2ccc(C3CCN(C)CC3)cc2)cs1 [Example 25, 4-Isopropoxy-3-((4-(4-(1-methylpiperidin-4-yl)phenyl)thiazol-2-yl)amino)benzenesulfonamide.TFA]
5700 nM	45000 nM	1600 nM	COc1ccc(F)cc1Nc1nc(-c2ccc(CN3CCC(F)CC3)cc2)cs1 [Example 62, N-(5-fluoro-2-methoxyphenyl)-4-(4-((4-fluoropiperidin-1-yl)methyl)phenyl)thiazol-2-amine.TFA]
		130 nM	CC(C)Oc1ccc(S(N)(=O)=O)cc1Nc1nc(-c2ccc(N3CCN(C(C)C)CC3)cc2)cs1 [Example 5, 4-Isopropoxy-3-((4-(4-(4-isopropylpiperazin-1-yl)phenyl)thiazol-2-yl)amino)benzenesulfonamide.TFA]
		64 nM	CC(C)Oc1ccc(S(N)(=O)=O)cc1Nc1nc(-c2ccc(C3CCN(C(C)C)CC3)cc2)cs1 [Example 27, 4-Isopropoxy-3-((4-(4-(1-isopropylpiperidin-4-yl)phenyl)thiazol-2-yl)amino)benzenesulfonamide.TFA]
650 nM	1300 nM	16000 nM	NS(=O)(=O)c1ccc(OC(F)(F)F)c(Nc2nc(-c3ccc(OCCN4CCC(F)(F)CC4)cc3)cs2)c1 [Example 33, 3-((4-(4-(2-(4,4-difluoropiperidin-1-yl)ethoxy)phenyl)thiazol-2-yl)amino)-4-(trifluoromethoxy)benzenesulfonamide.TFA]
96 nM	1800 nM	92 nM	CCOc1ccncc1Nc1nc(-c2ccc(OCCN3CCC(F)CC3)cc2)cs1 [Example 36, N-(4-ethoxypyridin-3-yl)-4-(4-(2-(4-fluoropiperidin-1-yl)ethoxy)phenyl)thiazol-2-amine.TFA]
1300 nM	1200 nM	1100 nM	NS(=O)(=O)c1ccc(OC(F)(F)F)c(Nc2nc(-c3ccc(OCCN4CCOCC4)cc3)cs2)c1 [Example 30, 3-((4-(4-(2-Morpholinoethoxy)phenyl)thiazol-2-yl)amino)-4-(trifluoromethoxy)benzenesulfonamide.TFA]
6200 nM	48000 nM	2000 nM	COc1ccc(F)cc1Nc1nc(-c2ccc(CN3CCOCC3)cc2)cs1 [Example 64, N-(5-fluoro-2-methoxyphenyl)-4-(4-(morpholinomethyl)phenyl)thiazol-2-amine.TFA]
150 nM	75 nM	1100 nM	CC(C)Oc1ccc(S(N)(=O)=O)cc1Nc1nc(-c2ccc(OCCN3CCC(F)(F)CC3)cc2)cs1 [Example 31, 3-((4-(4-(2-(4,4-Difluoropiperidin-1-yl)ethoxy)phenyl)thiazol-2-yl)amino)-4-isopropoxybenzenesulfonamide.TFA]
5600 nM	53000 nM	1500 nM	COc1ccc(F)cc1Nc1nc(-c2ccc(CN3CC[C@@H](F)C3)cc2)cs1 [Example 61, (R)—N-(5-fluoro-2-methoxyphenyl)-4-(4-((3-fluoropyrrolidin-1-yl)methyl)phenyl)thiazol-2-amine.TFA]
46 nM	25 nM	44 nM	CCN1CCC(c2ccc(-c3csc(Nc4cc(S(N)(=O)=O)ccc4OC(C)C)n3)cc2)CC1 [Example 26, 3-((4-(4-(1-Ethylpiperidin-4-yl)phenyl)thiazol-2-yl)amino)-4-isopropoxybenzenesulfonamide.TFA]
		130 nM	CC(C)Oc1ccc(S(N)(=O)=O)cc1Nc1nc(-c2ccc(C3CCNCC3)cc2)cs1 [Example 24, 4-Isopropoxy-3-((4-(4-(piperidin-4-yl)phenyl)thiazol-2-yl)amino)benzenesulfonamide.TFA]
		34 nM	CCN1CC=C(c2ccc(-c3csc(Nc4cc(S(N)(=O)=O)ccc4OC(C)C)n3)cc2)CC1 [Example 14, 3-((4-(4-(1-Ethyl-1,2,3,6-tetrahydropyridin-4-yl)phenyl)thiazol-2-yl)amino)-4-isopropoxybenzenesulfonamide.TFA]
